{"source": "paper PMC9020721", "about": "“Characterization of BLUF-photoreceptors present in Acinetobacter nosocomialis” (PLoS ONE, 2022)", "key": {"AnBLUF46": {"target": "T1, AnBLUF46 (Acinetobacter nosocomialis, UniProt A0AA36NWK2)", "T1 construct": "gene ANICBIBUN_11750; full length, 147 residues, N-terminal His-tag, pET28-TEV, E. coli BL21 (pLysS), Ni-NTA; tag cleavage not mentioned", "T1 sequence (A0AA36NWK2 1-147)": "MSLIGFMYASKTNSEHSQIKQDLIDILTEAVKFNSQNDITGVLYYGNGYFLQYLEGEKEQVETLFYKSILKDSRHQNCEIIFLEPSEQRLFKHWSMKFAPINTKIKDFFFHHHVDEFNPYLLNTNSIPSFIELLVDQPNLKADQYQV", "assay": "UV-vis absorption and fluorescence emission of the co-purified flavin", "assay_type": "binding", "conditions": "20 mM Tris-HCl, 200 mM NaCl, pH 8.0, 15 °C; flavin as purified with the protein, fully oxidized; flavin identity assigned by the authors, no separate analysis"}, "AnBLUF65": {"target": "T2, AnBLUF65 (Acinetobacter nosocomialis, UniProt A0AA36P071)", "T2 construct": "gene ANICBIBUN_09924; full length, 156 residues, N-terminal His-tag, synthetic gene in pET28a(+), E. coli BL21 (pLysS), Ni-NTA", "T2 sequence (A0AA36P071 1-156)": "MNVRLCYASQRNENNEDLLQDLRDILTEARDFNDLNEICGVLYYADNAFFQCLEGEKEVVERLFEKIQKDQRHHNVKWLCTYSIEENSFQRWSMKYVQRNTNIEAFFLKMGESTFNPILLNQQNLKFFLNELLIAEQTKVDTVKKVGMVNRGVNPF", "assay": "UV-vis absorption and fluorescence emission of the co-purified flavin", "assay_type": "binding", "conditions": "20 mM Tris-HCl, 200 mM NaCl, pH 8.0, 15 °C; flavin as purified with the protein, fully oxidized; flavin identity assigned by the authors, no separate analysis"}}, "data": [{"molecule": "Cc1cc2nc3c(=O)[nH]c(=O)nc-3n(C[C@H](O)[C@H](O)[C@H](O)COP(=O)(O)OP(=O)(O)OC[C@H]3O[C@@H](n4cnc5c(N)ncnc54)[C@H](O)[C@@H]3O)c2cc1C", "note": "[FAD]", "values": [{"measurement": "UV-vis absorption and fluorescence emission of the co-purified flavin", "setting": "AnBLUF46", "value": "blue-shifted compared with free FAD in the same working buffer"}, {"measurement": "UV-vis absorption and fluorescence emission of the co-purified flavin", "setting": "AnBLUF65", "value": "blue-shifted compared with free FAD in the same working buffer"}]}]}
